The results in this text go back to patent US10385050B2, “Indolin-2-one and 1,3-dihydro-pyrrolo[3,2-c]pyridin-2-one derivatives” (Hoffmann-La Roche Inc., priority 2014, dated 2019).

In general, inhibition in vivo refers to the share of the control response that was lost under treatment.

Counter-ions that a name gives are not always drawn.

The subject of assay [1] is L-687,414-induced hyperlocomotion. The experiment in a line: Reversal of L-687,414-induced hyperlocomotion (Digiscan locomotor activity). To be noted: for ID50 po: dose producing 50% inhibition of L-687,414-induced hyperlocomotion, p.o. 15 min before s.c. 50 mg/kg L-687,414, doses 1-3-10 (Expl. 2: 3-10-30) mg/kg; for inhibition in vivo at 30 mg/kg: Mus musculus, 0.5 h, dose ip 30 mg/kg at the same time as s.c. 50 mg/kg L-687,414, horizontal activity over 30 min. It is filed as in vivo, mouse. The source says: The authors described that hyperlocomotion induced by L-687,414 was inhibited by a series of known antipsychotic drugs. […] These findings predict antipsychotic activity for the present compounds, making them useful for the treatment of positive (psychosis) and negative symptoms of schizophrenia, substance abuse, alcohol and drug addiction, obsessive-compulsive disorders, cognitive impairment, bipolar disorders, mood disorders, major depression, resistant depression, anxiety disorders, Alzheimer's disease, autism, Parkinson's disease, chronic pain, borderline personality disorder, sleep disturbances, chronic fatigue syndrome, stiffness, antiinflammatory effects in arthritis and balance problems.
The described compounds of formula I reduce L-687,414-induced hyperlocomotion. This was assessed by using a computerized Digiscan 16 Animal Activity Monitoring System (Omnitech Electronics, Columbus, Ohio) to quantify locomotor activity. Animals were kept under a 12 h light/dark cycle and experiments were performed during the light period. Each activity monitoring chamber consisted of a Plexiglas box (41×41×28 cm; W×L×H) with sawdust bedding on the floor surrounded by invisible horizontal and vertical infrared sensor beams. The test boxes were divided by a Plexiglas cross providing each mouse with 20×20 cm of moving space. Cages were connected to a Digiscan Analyzer linked to a computer that constantly collected the beam status information. Records of photocell beam interruptions for individual animals were taken every 5 min over the duration of the experimental session and the sum of the first 6 periods was used as the final parameter. Compounds were administered either p.o. 15 min before a s.c. injection of 50 mg/kg of L-687,414, or i.p. at the same time as a s.c. injection of 50 mg/kg of L-687,414. Mice were then transferred from their home cage to the recording chambers for a 15-min habituation phase allowing free exploration of the new environment. Horizontal activity was then recorded for a 30-min time period. The % inhibition of L-687,414-induced hyperlocomotion was calculated according to the equation: ((Veh+L-687,414 horizontal activity−drug+L-687,414 horizontal activity)/Veh+L−687,414 horizontal activity)×100
ID50 values, defined as doses of each compound producing 50% inhibition of L-687,414-induced hyperlocomotion, were calculated by linear regression analysis of a dose-response data using an Excel-based computer-fitting program.
As data was not presupposed to be normally distributed, groups treated with test compounds were statistically compared with the control (vehicle-treated) group using one-tailed Mann Whitney U tests. In statistics, the Mann-Whitney U test (also called the Mann-Whitney-Wilcoxon (MWW) or Wilcoxon rank-sum test) is a non-parametric statistical hypothesis test for assessing whether one of two samples of independent observations tends to have larger values than the other. It is one of the most well-known non-parametric significance tests. […] P values given in table 1 are one-tailed since only decreases in locomotion were expected and tested for (Mann, H. B., Whitney, D. R. (1947), “On a Test of Whether one of Two Random Variables is Stochastically Larger than the Other”, Annals of Mathematical Statistics, 18 (1), 50-60).

The test system of assay [2] is behaviors of compound-treated mice. The experiment in a line: SmartCube behavioral signature and similarity analysis to atypical antipsychotics. It is filed as in vivo, mouse. To be noted: 25 mg/kg i.p.; for SmartCube signature (class similarity): FIG. 1; for Similarity analysis: discrimination rate vs Clozapine / Similarity analysis: discrimination rate vs Olanzapine / Similarity analysis: discrimination rate vs Risperidone: rate of 0.70 or lower = similar, 0.5 = zero distinguishability. The source says:
In addition to the reversal of L-687,414 induced hyperlocomotion experiment as described above, some compounds of the present invention have been tested in SmartCube®, an automated system in which the behaviors of compound-treated mice in response to multiple challenges are captured by digital video and analyzed with computer algorithms (Roberds et al., Frontiers in Neuroscience, 2011, Vol. 5, Art. 103, 1-4). In this way, the neuro-pharmacological effects of a test compound can be predicted by similarity to major classes of compounds, such as antipsychotics, anxiolytics and antidepressants.
As mentioned above, some compounds have been tested in SmartCube®, an analytical system developed by PsychoGenics Inc.
SmartCube® was used to compare the behavioral signature of a test compound to a database of behavioral signatures obtained from a large set of clinically approved reference drugs, grouped per indications. In this way, the neuro-pharmacological effects of a test compound can be predicted by similarity to major classes of compounds, such as antipsychotics, anxiolytics and antidepressants. This approach is ideally suited to screen collections of existing drugs or drug candidates with previously unknown neuropharmacology, which could expedite the development of new and unexpected treatments for psychiatric disorders.
Some compounds of the present invention were injected i.p. at different doses 15 minutes before the test. At least 8 mice were used in each treatment group. Digital videos of the subjects were processed with computer vision algorithms to extract over 2000 dependent measures including frequency and duration of many different behavioral states. The results of the classifications are presented as bar charts for each compound and dose (mg/kg), the Y-axis indicates the relative probability that the test compound will show efficacy in the specific CNS indication.
Compounds of the present invention show similar signatures to those of atypical antipsychotics. An independent analysis was performed on the unclassified data to determine the similarity of the example compounds to active doses of known atypical antipsychotics. For this analysis, we use discrimination rate as the measure of separability between the two drugs, i.e. one drug's “distinguishability” from another. A rate equal to 50% (or 0.5) corresponds to zero distinguishability. […] In most cases, the example compounds show a similarity to risperidone, clozapine and olanzapine with a discrimination rate of ≤0.70.

With `Cc1cc(-c2ncc(-c3ccc4c(c3)NC(=O)C4(C)C)o2)ccn1` [Example 35, 3,3-Dimethyl-6-(2-(2-methylpyridin-4-yl)oxazol-5-yl)indolin-2-one], the ID50 po in assay [1] is given as 5.82 mg/kg. Moreover, in assay [2], the “SmartCube signature (class similarity)” value is listed as “similarity to atypical antipsychotics”, the “Similarity analysis: discrimination rate vs Clozapine” value (from here on “Similarity analysis … vs Clozapine”) amounted to 0.69, the “Similarity analysis: discrimination rate vs Olanzapine” value (“Similarity analysis … vs Olanzapine” for short) came out at 0.75 and the “Similarity analysis: discrimination rate vs Risperidone” value (from here on “Similarity analysis … vs Risperidone”) is given as 0.60.

For `CC1(C)C(=O)Nc2cc(-n3cnc(-c4ccncc4)c3)ccc21` [Example 47, 3,3-Dimethyl-6-(4-(pyridin-4-yl)-1H-imidazol-1-yl)indolin-2-one], in assay [2], the “SmartCube signature (class similarity)” value is “similarity to atypical antipsychotics”, the “Similarity analysis … vs Clozapine” value is reported as 0.70, the “Similarity analysis … vs Olanzapine” value turned out to be 0.68 and the “Similarity analysis … vs Risperidone” value is reported as 0.64.

As for `Cc1cc(-n2cnc(-c3ccc4c(c3)N(C)C(=O)C4(C)C)c2)ccn1` [Example 62, 1,3,3-Trimethyl-6-(1-(2-methylpyridin-4-yl)-1H-imidazol-4-yl)indolin-2-one], in assay [1], the ID50 po came to 8.8 mg/kg. In assay [2], the “SmartCube signature (class similarity)” value is given as “similarity to atypical antipsychotics”, the “Similarity analysis … vs Clozapine” value was found to be 0.59, the “Similarity analysis … vs Olanzapine” value came out at 0.62 and the “Similarity analysis … vs Risperidone” value is 0.58.

On to `Cc1cnccc1-n1cnc(-c2ccc3c(c2)N(C2CC2)C(=O)C3(C)C)c1` [Example 89, 1-Cyclopropyl-3,3-dimethyl-6-(1-(3-methylpyridin-4-yl)-1H-imidazol-4-yl)indolin-2-one], for which, in assay [1], the inhibition in vivo at 30 mg/kg was found to be 58.5%.

On to `CC1(C)C(=O)Nc2cc(-c3cn(-c4cccnc4)cn3)ccc21` [Example 93, 3,3-Dimethyl-6-(1-(pyridin-3-yl)-1H-imidazol-4-yl)indolin-2-one], for which, in assay [2], the “SmartCube signature (class similarity)” value is “similarity to atypical antipsychotics”, the “Similarity analysis … vs Clozapine” value stood at 0.63, the “Similarity analysis … vs Olanzapine” value stood at 0.68 and the “Similarity analysis … vs Risperidone” value is listed as 0.60.

On to `Cc1ccc(-c2ncc(-c3ccc4c(c3)N(C)C(=O)C4(C)C)cn2)cn1` [Example 101, 1,3,3-Trimethyl-6-(2-(6-methylpyridin-3-yl)pyrimidin-5-yl)indolin-2-one], for which the inhibition in vivo at 30 mg/kg in assay [1] was 78.4%.

As to `Cc1ccc(N2C(=O)C(C)(C)c3ccc(-c4cn(-c5ccncc5F)cn4)cc32)cn1` [Example 102, 6-[1-(3-Fluoro-4-pyridyl)imidazol-4-yl]-3,3-dimethyl-1-(6-methyl-3-pyridyl)indolin-2-one], the inhibition in vivo at 30 mg/kg in assay [1] turned out to be 65.6%.

Take `Cc1ccc(N2C(=O)C(C)(C)c3ccc(-c4cn(-c5ccnc(C)c5)cn4)cc32)cn1` [Example 104, 3,3-Dimethyl-1-(6-methyl-3-pyridyl)-6-[1-(2-methyl-4-pyridyl)imidazol-4-yl]indolin-2-one]: in assay [1], the inhibition in vivo at 30 mg/kg was 64.8%.

`Cc1ccc(N2C(=O)C(C)(C)c3ccc(-c4cn(-c5ccncc5C)cn4)cc32)cn1` [Example 105, 3,3-Dimethyl-1-(6-methyl-3-pyridyl)-6-[1-(3-methyl-4-pyridyl)imidazol-4-yl]indolin-2-one]: the inhibition in vivo at 30 mg/kg in assay [1] was found to be 40.6%.

`Cc1cc(N2C(=O)C(C)(C)c3ccc(-c4cn(-c5ccncc5C)cn4)cc32)ccn1` [Example 106, 3,3-Dimethyl-1-(2-methyl-4-pyridyl)-6-[1-(3-methyl-4-pyridyl)imidazol-4-yl]indolin-2-one]: in assay [1], the inhibition in vivo at 30 mg/kg turned out to be 68.4%.

As to `Cc1cc(-n2cnc(-c3ccc4c(c3)N(c3cn(C)cn3)C(=O)C4(C)C)c2)ccn1` [Example 111, 3,3-Dimethyl-1-(1-methylimidazol-4-yl)-6-[1-(2-methyl-4-pyridyl)imidazol-4-yl]indolin-2-one], the inhibition in vivo at 30 mg/kg in assay [1] came out at 55.1%.

`Cc1cc(-n2cnc(-c3ccc4c(c3)N(c3ccn(C)n3)C(=O)C4(C)C)c2)ccn1` [Example 112, 3,3-Dimethyl-1-(1-methylpyrazol-3-yl)-6-[1-(2-methyl-4-pyridyl)imidazol-4-yl]indolin-2-one]: the inhibition in vivo at 30 mg/kg in assay [1] turned out to be 52.5%.

For the compound `Cc1cnccc1-n1cnc(-c2ccc3c(c2)N(c2cn(C)cn2)C(=O)C3(C)C)c1` [Example 114, 3,3-Dimethyl-1-(1-methylimidazol-4-yl)-6-[1-(3-methyl-4-pyridyl)imidazol-4-yl]indolin-2-one], the inhibition in vivo at 30 mg/kg in assay [1] was determined as 64.9%.

Take `Cc1cnccc1-n1cnc(-c2ccc3c(c2)N(c2ccn(C)n2)C(=O)C3(C)C)c1` [Example 115, 3,3-Dimethyl-1-(1-methylpyrazol-3-yl)-6-[1-(3-methyl-4-pyridyl)imidazol-4-yl]indolin-2-one]: the inhibition in vivo at 30 mg/kg in assay [1] is 74.1%.

Regarding `Cc1ncc(N2C(=O)C(C)(C)c3ccc(-c4cn(-c5ccncc5C)cn4)cc32)cn1` [Example 116, 3,3-Dimethyl-6-[1-(3-methyl-4-pyridyl)imidazol-4-yl]-1-(2-methylpyrimidin-5-yl)indolin-2-one], the inhibition in vivo at 30 mg/kg in assay [1] came out at 74.3%.

For `Cc1cnc(-n2cnc(-c3ccc4c(c3)N(C3CC3)C(=O)C4(C)C)c2)nc1` [Example 118, 1-Cyclopropyl-3,3-dimethyl-6-(1-(5-methylpyrimidin-2-yl)-1H-imidazol-4-yl)indolin-2-one], in assay [1], the inhibition in vivo at 30 mg/kg worked out at 50.3%.

Take `Cc1cnc(-n2cnc(-c3ccc4c(c3)N(C)C(=O)C4(C)C)c2)nc1` [Example 119, 1,3,3-Trimethyl-6-(1-(5-methylpyrimidin-2-yl)-1H-imidazol-4-yl)indolin-2-one]: the inhibition in vivo at 30 mg/kg in assay [1] came to 48.1%.

Turning to `Cc1cccc(-n2cnc(-c3ccc4c(c3)NC(=O)C4(C)C)c2)n1` [Example 123, 3,3-Dimethyl-6-(1-(6-methylpyridin-2-yl)-1H-imidazol-4-yl)indolin-2-one], the inhibition in vivo at 30 mg/kg in assay [1] is 30.6%.

Regarding `CC1(C)C(=O)N(CCO)c2cc(-c3cn(-c4ccncc4F)cn3)ccc21` [Example 130, 6-[1-(3-Fluoro-4-pyridyl)imidazol-4-yl]-1-(2-hydroxyethyl)-3,3-dimethyl-indolin-2-one], in assay [1], the inhibition in vivo at 30 mg/kg stood at 74.5%.

For `Cc1cc(-n2cnc(-c3ccc4c(c3)NC(=O)C4(C)C)c2)c(F)cn1` [Example 132, 6-[1-(5-Fluoro-2-methyl-4-pyridyl)imidazol-4-yl]-3,3-dimethyl-indolin-2-one trifluoroacetate], the inhibition in vivo at 30 mg/kg in assay [1] came out at 71.1%.
